Earlier results in US12012625B2, “Method for producing bioactive composition” (Imam Abdulrahman Bin Faisal University, priority 2020, dated 2024).

In the case of Cc1cc(=O)c2c(O)c3c(O)cc(=O)c4c3c3c(c(Cl)c(O)c1c23)C(C)(C)C=4O [chlorxanthomycin], the growth inhibition (B. subtilis) is given as “inhibited the growth” and the growth inhibition (B. amyloliquefaciens) is given as “inhibited the growth”.
